# Legend:
# [1] = cited from earlier work
# [2] = normal baseline conditions; cited from earlier work
# [3] = Determination of plasma half life, rat plasma; format: in vitro ADME; details: pH 7.4, 37° C. (Table 4), read-out: Mean t1/2
# Experimental: (§1) Human, rat, and dog plasma were dialyzed against PBS buffer, pH 7.4 using Thermo Slide-A-Lyzer™ G2 Dialysis Cassettes for 24 hours at 4° C. prior to the experiment.
# (§2) The assay was carried out in 96-well microtiter plates. Prodrugs and the reference compound (propantheline) at a final concentration of 1 μM were incubated separately in singlet at 37° C. with mouse, rat, dog, monkey or human plasma for 0, 30, 60, 120, 240, and 1440 min. At the end of each incubation time point, 300 μL of the quenching solutions (50% acetonitrile, 50% methanol, 0.05% formic acid) containing the internal standards (bucetin and d3-carnitine) was added to each well. The incubation plates were sealed, vortexed, and centrifuged at 10° C. for 15 minutes at 4000 rpm. The supernatant was transferred to fresh plates for LC/MS/MS analysis of the test compounds.
# (§3) All samples were analyzed by LC/MS/MS using an AB Sciex API 4000 instrument (AB Sciex LLC, Framingham, Mass.), coupled to a Shimadzu LC-20AD LC Pump system (Shimadzu North America, Columbia, Md.). […]
# (§4) The extent of metabolism was calculated based on the disappearance of prodrugs, compared to their initial concentration. The initial rates of clearance of prodrugs were calculated using linear regression plot of semi-log % remaining of prodrugs versus time. […]
# [4] = Determination of plasma half life, dog plasma; format: in vitro ADME; details: pH 7.4, 37° C. (Table 4)
# Experimental: as §1, §2, §3, §4
# [5] = Determination of plasma half life, human plasma; format: in vitro ADME; details: 37° C. (Table 1), read-out: Human Mean t1/2
# Experimental: as §1, §2, §3, §4
half-life at 1 μM [3] [h],half-life at 1 μM [4] [h],half-life at 1 μM [5] [h],SMILES,"bioavailability of dietary L-carnitine ([1]; dietary, depends on the amount in the meal)",bioavailability ([1]; oral administration of large amounts of exogenous carnitine (1-6 g)),tubular reabsorption in the kidney [2]
–,–,–,C[N+](C)(C)C[C@H](O)CC(=O)[O-] [L-carnitine],54-87%,5-18%,about 99%
8.79,22.7,9.16,"CCOC(=O)C[C@H](C[N+](C)(C)C)OC(=O)CC [Compound 3, (R)-4-ethoxy-N,N,N-trimethyl-4-oxo-2-(propionyloxy)butan-1-aminium chloride]",–,–,–
4.33,11.7,0.927,"CCCCC(=O)O[C@H](CC(=O)OCC)C[N+](C)(C)C [Compound 4, (R)-4-ethoxy-N,N,N-trimethyl-4-oxo-2-(pentanoyloxy)butan-1-aminium chloride]",–,–,–

# — patent publication US20230024991A1, “PRODRUGS OF ACYL CARNITINES” (ATAI Life Sciences AG, priority 2021, published 2023)
